The values below come from patent publication US20230218716A1, “COMPOSITIONS AND METHODS FOR TREATING ATRIAL FIBRILLATION” (Ohio State Innovation Foudation, priority 2020, published 2023).

Where a name gives a salt, the structure may show the parent alone.

For series [1] the following is noted: cited from earlier work.
Series [2] relates to murine atria. Conditions: VEGF-treated vs. control. The source says: (§1) Cryopreservation: Hearts were embedded in optimal cutting temperature compound and frozen using liquid nitrogen for cryosectioning and fluorescent immunolabeling as in previous studies (Veeraraghavan R, et al. Pflugers Arch. 2015 467:2093-2105; Veeraraghavan R, et al. Pflugers Arch. 2016 468:1651-61; Veeraraghavan R, et al. Elife. 2018 7; Veeraraghavan R and Gourdie R. Molecular biology of the cell. 2016 27:3583-3590). These samples were used for light microscopy experiments as described below.
(§2) Fluorescent Immunolabeling: Immuno-fluorescent labeling of cryosections (5 μm thickness) of fresh-frozen myocardium was performed, as previously described (Veeraraghavan R, et al. Pflugers Arch. 2015 467:2093-2105; Veeraraghavan R, et al. Elife. 2018 7; Koleske M, et al. The Journal of general physiology. 2018; Radwanski P B, et al. JACC: Basic to Translational Science. 2016 1:251-266). Briefly, cryosections were fixed with paraformaldehyde (2%, 5 minutes at room temperature), permeabilized with Triton X-100 (0.2% in PBS for 15 minutes at room temperature) and treated with blocking agent (1% BSA, 0.1% triton in PBS for 2 hours at room temperature) prior to labeling with primary antibodies (overnight at 4° C.). Samples were then washed in PBS (3×5 minutes in PBS at room temperature) prior to labeling with secondary antibodies.
For confocal microscopy, samples were then labeled with goat anti-mouse and goat anti-rabbit secondary antibodies conjugated to Alexa 405, Alexa 488, Alexa 568 and Alexa 647 were used (1:8000; ThermoFisher Scientific, Grand Island, N.Y.). Simultaneous labeling with two rabbit or mouse primary antibodies was accomplished by direct fluorophore conjugation of primary antibodies (Zenon labeling kits, ThermoFisher Scientific, Grand Island, N.Y.). Samples were then washed in PBS (3×5 minutes in PBS at room temperature) and mounted in ProLong Gold (Invitrogen, Rockford, Ill.). For STimulated Emission Depletion (STED) microscopy, samples were prepared similar to confocal microscopy but labeled with Alexa 594 and Atto 647N fluorophores. […]

Series [3] has as its system mouse hearts. As to conditions: VEGF high dose (500 pg/ml) vs. untreated controls. The source says:
Primary Antibodies: The following primary antibodies were used for Western immunoblotting and fluorescence microscopy studies: connexin43 (Cx43; rabbit polyclonal; Sigma C6219); connexin40 (Cx40; rabbit polyclonal; ThermoFisher Scientific 36-4900); N-cadherin (N-cad; mouse monoclonal; BD Biosciences 610920); cardiac isoform of the voltage-gated sodium channel (Nav1.5; rabbit polyclonal; custom antibody (Veeraraghavan R, et al. Elife. 2018 7)); and the sodium channel β subunit (β1; rabbit polyclonal; custom antibody (Veeraraghavan R, et al. Elife. 2018 7))
Western Immunoblotting: Whole cell lysates of mouse hearts frozen using liquid nitrogen were prepared as previously described (Veeraraghavan R, et al. Elife. 2018 7; Koleske M, et al. The Journal of general physiology. 2018; Struckman H L, et al. Microsc Microanal. 2020:1-9). These were electrophoresed on 4-15% TGX Stain-free gels (BioRad, Hercules, Calif.) before being transferred onto a nitrocellulose membrane. The membranes were probed with primary antibodies against Cx43, Cx40, Nav1.5 and […] as well as mouse monoclonal antibody against GAPDH (loading control; Fitzgerald Industries, Acton, Mass.), followed by goat anti-rabbit and goat anti-mouse HRP-conjugated secondary antibodies (Promega, Madison, Wis.). Signals were detected by chemiluminescence using SuperSignal West Femto Extended Duration Substrate (ThermoFisher Scientific, Grand Island, N.Y.) and imaged using a Chemidoc MP imager (BioRad, Hercules, Calif.).

Series [4] concerns Langendorff-perfused mouse hearts. Conditions: VEGF 500 pg/ml, perfused 60 minutes; vehicle 100±9%; n=3 hearts/group. The method, then: (§3) Langendorff preparations: For optical mapping and ex vivo electrocardiography (ECG) studies, hearts were perfused (at 40-55 mm Hg) in a Langendorff configuration with oxygenated, modified Tyrode's solution (containing, in mM: NaCl 140, KCl 5.4, MgCl2 0.5, dextrose 5.6, HEPES 10; pH adjusted to 7.4) at 37° C. as previously described (Veeraraghavan R, et al. Pflugers Arch. 2015 467:2093-2105; Veeraraghavan R, et al. Elife. 2018 7; Radwanski P B, et al. Cardiovascular research. 2015 106:143-52; Radwanski P B, et al. Heart rhythm. 2010 7:1428-35; Veeraraghavan R and Poelzing S. Cardiovascular research. 2008 77:749-56.

Series [5] concerns mice. Conditions: intraperitoneal VEGF 10 or 50 ng/kg; epinephrine 1.5 mg/kg and caffeine 120 mg/kg. The method, then:
In vivo ECG: Continuous ECG recordings (PL3504 PowerLab 4/35, ADInstruments) were obtained from mice anesthetized with isoflurane (1-1.5%) as previously described (Koleske M, et al. The Journal of general physiology. 2018). Briefly, after baseline recording (5 min.), animals received either intraperitoneal VEGF (10 or 50 ng/kg; Sigma) or vehicle (PBS). After an additional 20 min, animals were injected intraperitoneally with epinephrine (1.5 mg/kg; Sigma) and caffeine (120 mg/kg; Sigma) challenge and ECG recording continued for 40 minutes. ECG recordings were analyzed using the LabChart 8 software (ADInstruments).

For series [6], the system named is Langendorff-perfused mouse hearts. The method, then: as §3
Optical Mapping and Volume-conducted Electrocardiography (ECG): Optical voltage mapping was performed using the voltage sensitive dye, di-4-ANEPPS (15 μM; ThermoFisher Scientific, Grand Island, N.Y.), as previously described (Veeraraghavan R, et al. Pflugers Arch. 2015 467:2093-2105; Veeraraghavan R, et al. Pflugers Arch. 2016 468:1651-61; Veeraraghavan R and Poelzing S. Cardiovascular research. 2008 77:749-56), in order to quantify conduction velocity. Motion was suppressed by adding blebbistatin (10 μM) to the perfusate. Preparations were excited by 510 nm light and fluorescent signals passed through a 610 nm longpass filter (Newport, Irvine, Calif.) and recorded at 1000 frames/sec using a MiCAM Ultima-L CMOS camera (SciMedia, Costa Mesa, Calif.). Activation time was defined as the time of the maximum first derivative of the AP (Girouard S D, et al. J Cardiovasc Electrophysiol. 1996 7:1024-38), and activation times were fitted to a parabolic surface (Bayly P V, et al. IEEE Trans Biomed Eng. 1998 45:563-71). Gradient vectors evaluated along this surface were averaged along the fast axis of propagation (±15°) to quantify CV.

Series [7] has as its system murine atria.
From the text: as §1, §2
For confocal microscopy, samples were then labeled with goat anti-mouse and goat anti-rabbit secondary antibodies conjugated to Alexa 405, Alexa 488, Alexa 568 and Alexa 647 were used (1:8000; ThermoFisher Scientific, Grand Island, N.Y.). Simultaneous labeling with two rabbit or mouse primary antibodies was accomplished by direct fluorophore conjugation of primary antibodies (Zenon labeling kits, ThermoFisher Scientific, Grand Island, N.Y.). Samples were then washed in PBS (3×5 minutes in PBS at room temperature) and mounted in ProLong Gold (Invitrogen, Rockford, Ill.). For STimulated Emission Depletion (STED) microscopy, samples were prepared similar to confocal microscopy but labeled with Alexa 594 and Atto 647N fluorophores. For STochastic Optical Reconstruction Microscopy (STORM), samples were labeled with Alexa 647 and Biotium CF 568 fluorophores. STORM samples were then washed in PBS (3×5 minutes in PBS at room temperature) and optically cleared using Scale U2 buffer (48 hours at 4° C.) prior to imaging (Veeraraghavan R, et al. Pflugers Arch. 2016 468:1651-61; Veeraraghavan R, et al. Elife. 2018 7; Veeraraghavan R and Gourdie R. Molecular biology of the cell. 2016 27:3583-3590).
Single Molecule Localization: STORM imaging was performed using a Vutara 352 microscope (Bruker Nano Surfaces, Middleton, Wis.) equipped with biplane 3D detection, and fast sCMOS imaging achieving 20 nm lateral and 50 nm axial resolution, as previously described (Veeraraghavan R, et al. Elife. 2018 7; Veeraraghavan R and Gourdie R. Molecular biology of the cell. 2016 27:3583-3590; Struckman H L, et al. Microsc Microanal. 2020:1-9; Bonilla I M, et al. Sci Rep. 2019 9:10179). Individual fluorophore molecules were localized with a precision of 10 nm. The two-color channels were precisely registered using localized positions of several TetraSpeck Fluorescent Microspheres (ThermoFisher Scientific, Carlsbad, Calif.) scattered throughout the field of view, with the procedure being repeated at the start of each imaging session. Protein clustering and spatial organization were quantitatively assessed from single molecule localization data using STORM-RLA, a machine learning-based cluster analysis approach, as previously described (Veeraraghavan R and Gourdie R. Molecular biology of the cell. 2016 27:3583-3590).

Series [8] deals with murine atria. The protocol: Fixation for Transmission Electron Microscopy (TEM): Atria were dissected and fixed overnight in 2% glutaraldehyde at 4° C. for resin embedding and ultramicrotomy as previously described (Veeraraghavan R, et al. Pflugers Arch. 2015 467:2093-2105; Veeraraghavan R, et al. Elife. 2018 7).
Transmission Electron Microscopy (TEM): TEM images of the ID, particularly gap junctions (GJs) and mechanical junctions (MJs), were obtained at 60,000× magnification on a FEI Tecnai G2 Spirit electron microscope. Intermembrane distance at various ID sites was quantified using ImageJ (NIH), as previously described (Veeraraghavan R, et al. Pflugers Arch. 2015 467:2093-2105; Veeraraghavan R, et al. Elife. 2018 7).
The source holds these as a separate data set.

[9] abbreviates: both low (100 pg/ml) and high (500 pg/ml) doses vs. untreated controls.

Take `O[C@H](c1cc(C(F)(F)F)nc2c(C(F)(F)F)cccc12)[C@@H]1CCCCN1` (relative stereo) [Mefloquine hydrochloride, (R*,S*)-(±)-alpha-2-piperidinyl-2,8-bis(trifluoromethyl)-4-quinolinemethanol]: the Solubility in ethanol result in series [1] (ethanol) was “soluble”. Further, the Solubility in water result in series [1] (water) is given as “slightly soluble”.
Turning to VEGF, in series [2] (<100 nm from Cx43), the “Nav1.5 enrichment ratio near Cx43 (STED)” value is given as “significantly decreased” and the “β1 enrichment ratio near Cx43 (STED)” value was “significantly decreased”. Further, the “Nav1.5 enrichment ratio at N-cad-rich sites (STED)” value in series [2] is “trended towards a decrease”. Besides, in series [3], the “Expression level of Cx43” value is listed as “no significant difference”, the “Expression level of N-cad” value is reported as “no significant difference”, the “Expression level of Nav1.5” value was “no significant difference” and the “Expression level of β1” value is “no significant difference”. Moreover, the “Expression of Cx40” value in series [3] is listed as “slightly elevated”. For the same compound, the “Levels of FITC-dextran extravasated relative to vehicle controls” value in series [4] amounted to 201±7%. Also, the “Atrial arrhythmias in vivo after caffeine and epinephrine challenge” value in series [5] was “elicited atrial arrhythmias in VEGF-treated mice but not in untreated controls”. Besides, in series [6] (30 minutes of VEGF perfusion (100 and 500 pg/ml) vs. untreated control), the P wave duration entry is recorded as “significant P-wave prolongation”. The “Incidence of burst pacing-induced atrial arrhythmias” value in series [6] (VEGF 100 and 500 pg/ml, 30 minutes, 10 s burst pacing at 50, 40, 30 ms) is recorded as “increased the incidence of burst pacing-induced atrial arrhythmias in dose-dependent fashion”. Further, the Atrial conduction velocity result in series [6] (VEGF 100 and 500 pg/ml, 30 minutes, paced at cycle length 100 ms) is “significantly and dose-dependently decreased”. Besides, the “β1 density at N-cad-rich plicate ID sites” value in series [7] (VEGF treated hearts vs. control) is “without significant changes”. For the same compound, in series [7] (VEGF treated hearts, control 6.5±0.4), the “Nav1.5 enrichment ratio at N-cad-rich plicate ID sites” value is on record as 4.6±0.4. Moreover, the “Nav1.5 enrichment ratio at Cx43-adjacent perinexal sites” value in series [7] (VEGF treated hearts, control 10.5±0.3) was 6.9±0.8. Moreover, in series [7] (VEGF treated hearts, control 10.7±1.9), the “β1 enrichment ratio at Cx43-adjacent perinexal sites” value turned out to be 5.4±0.7. For the same compound, the “% of ID-localized Nav1.5 signal at N-cad-rich plicate ID sites” value in series [7] (VEGF treated hearts, control 35±2%) was 26±3%. The “% of ID-localized Nav1.5 signal at Cx43-adjacent perinexal sites” value in series [7] (VEGF treated hearts, control 59±2%) came to 32±3%. Further, the “% of ID-localized β1 signal at Cx43-adjacent perinexal sites” value in series [7] (VEGF treated hearts, control 69±4%) is reported as 49±3%. Besides, in series [8] (setting [9]), the “Intermembrane distance at GJ-adjacent sites” value was “significantly increased” and the “Intermembrane distance at MJ-adjacent sites” value is listed as “significantly increased”. Further, in series [8] (low vs. high dose of VEGF), the “Dose dependence of ID swelling” value is given as “dose-dependent fashion at GJ-adjacent perinexi but not near MJ”.
